Laboratory results: patent publication US10596171B2, “Cap-dependent endonuclease inhibitors” (priority 2018, dated 2020)
pEC50: −log10 of the molar value.

tested on: influenza B virus; test: microbe, parasite or virus in culture; format: cell-based; settings: MDCK, 72 h, read-out: EC50 (reduce virus-induced CPE by 50%)

SMILES	pEC50
O=C1c2c(O)c(=O)ccn2N(C2c3ccccc3SCc3c2ccc(Cl)c3F)CC12CC2 (stereo not drawn) [Compound 19]	6.00 to 7.00
CC1CC12CN(C1c3ccc(F)c(F)c3CSc3c(F)cccc31)n1ccc(=O)c(O)c1C2=O (stereo not drawn) [Compound 35]	> 7.00
Cc1cccc2c1SCc1cc(F)ccc1C2N1CC2(CC2)C(=O)c2c(O)c(=O)ccn21 (stereo not drawn) [Compound 7]	> 7.00
COCC1CC12CN(C1c3ccccc3SCc3c1ccc(F)c3F)n1ccc(=O)c(O)c1C2=O (stereo not drawn) [Compound 38]	> 7.00
O=C1c2c(O)c(=O)ccn2N(C2c3ccc(F)cc3CSc3c(F)cccc32)CC12CC2 (stereo not drawn) [Compound 5]	> 7.00
Cc1cccc2c1SCc1c(ccc(F)c1F)C2N1C(C)C2(CC2)C(=O)c2c(O)c(=O)ccn21 (stereo not drawn) [Compound 27]	6.00 to 7.00
O=C1c2c(O)c(=O)ccn2N(C2c3ccccc3CSc3c(F)cccc32)CC12CC2 (stereo not drawn) [Compound 9]	> 7.00
O=C1c2c(O)c(=O)ccn2N(C2c3ccc(F)cc3CSc3ccccc32)CC12CC2 (stereo not drawn) [Compound 8]	> 7.00
O=C1c2c(O)c(=O)ccn2N(C2c3ccc(F)c(F)c3CSc3c(F)cccc32)CC12CC2 (stereo not drawn) [Compound 17]	> 7.00
[2H]c1c([2H])c([2H])c2c(c1[2H])SCc1c(ccc(F)c1F)[C@@H]2N1CC2(CC2)C(=O)c2c(O)c(=O)ccn21 [Compound 39]	> 7.00
O=C1c2c(O)c(=O)ccn2N(C2c3ccc(Cl)cc3CSc3ccccc32)CC12CC2 (stereo not drawn) [Compound 4]	> 7.00
Cc1cccc2c1SCc1c(ccc(F)c1F)C2N1CC2(CC2C)C(=O)c2c(O)c(=O)ccn21 (stereo not drawn) [Compound 36]	6.00 to 7.00
O=C1c2c(O)c(=O)ccn2N(C2c3ccccc3SCc3c2ccc(F)c3F)CC12CC2COCc1ccccc1 (stereo not drawn) [Compound 34]	6.00 to 7.00
CCOC(=O)C1CC12CN(C1c3ccccc3SCc3c1ccc(F)c3F)n1ccc(=O)c(O)c1C2=O (stereo not drawn) [Compound 32]	6.00 to 7.00
CC1N(C2c3ccccc3SCc3c2ccc(F)c3F)n2ccc(=O)c(O)c2C(=O)C12CC2 (stereo not drawn) [Compound 21]	6.00 to 7.00
O=C1c2c(O)c(=O)ccn2N(C2c3ccc(F)cc3COc3c(Cl)cccc32)CC12CC2 (stereo not drawn) [Compound 15]	> 7.00
Cc1cccc2c1SCc1c(ccc(F)c1F)C2N1CC2(CC2)C(=O)c2c(O)c(=O)ccn21 (stereo not drawn) [Compound 16]	6.00 to 7.00
O=C1c2c(O)c(=O)ccn2N(C2c3ccc(Cl)c(F)c3CSc3c(F)cccc32)CC12CC2 (stereo not drawn) [Compound 24]	> 7.00
Cc1cccc2c1SCc1c(F)cccc1C2N1CC2(CC2)C(=O)c2c(O)c(=O)ccn21 (stereo not drawn) [Compound 10]	6.00 to 7.00
CCC1CC12CN(C1c3ccccc3SCc3c1ccc(F)c3F)n1ccc(=O)c(O)c1C2=O (stereo not drawn) [Compound 37]	> 7.00

SMILES	pEC50
O=C1c2c(O)c(=O)ccn2N(C2c3ccc(F)c(F)c3CSc3c(Cl)cccc32)CC12CC2 (stereo not drawn) [Compound 18]	6.00 to 7.00
Cc1cccc2c1SCc1ccccc1C2N1CC2(CC2)C(=O)c2c(O)c(=O)ccn21 (stereo not drawn) [Compound 11]	6.00 to 7.00
CC1N(C2c3ccc(F)c(F)c3CSc3c(F)cccc32)n2ccc(=O)c(O)c2C(=O)C12CC2 (stereo not drawn) [Compound 26]	6.00 to 7.00
C=CC1N(C2c3ccccc3SCc3c2ccc(F)c3F)n2ccc(=O)c(O)c2C(=O)C12CC2 (stereo not drawn) [Compound 25]	6.00 to 7.00
O=C1c2c(O)c(=O)ccn2N(C2c3ccccc3SCc3c2ccc(F)c3F)CC12CC2 (stereo not drawn) [Compound 2]	> 7.00
Cc1cc(=O)c(O)c2n1N(C1c3ccc(F)c(F)c3CSc3c(F)cccc31)CC1(CC1)C2=O (stereo not drawn) [Compound 30]	6.00 to 7.00
O=C1c2c(O)c(=O)ccn2N(C2c3ccccc3CSc3c(Cl)cccc32)CC12CC2 (stereo not drawn) [Compound 13]	6.00 to 7.00
CCC1N(C2c3ccccc3SCc3c2ccc(F)c3F)n2ccc(=O)c(O)c2C(=O)C12CC2 (stereo not drawn) [Compound 22]	6.00 to 7.00
O=C1c2c(O)c(=O)ccn2N(C2c3ccccc3SCc3c(F)cccc32)CC12CC2 (stereo not drawn) [Compound 1, 1-(1-Fluoro-5,11-dihydro-10-thia-dibenzo[a,d]cyclohepten-5-yl)-5-hydroxy-3,3-cyclopropyl-2,3-dihydro-1H-pyrido[1,2-b]pyridazine-4,6-dione]	6.00 to 7.00
O=C1c2c(O)c(=O)ccn2N(C2c3ccc(Cl)c(F)c3CSc3c(Cl)cccc32)CC12CC2 (stereo not drawn) [Compound 23]	6.00 to 7.00
O=C1c2c(O)c(=O)ccn2N(C2c3cccc(F)c3CSc3c(Cl)cccc32)CC12CC2 (stereo not drawn) [Compound 12]	6.00 to 7.00
Cc1cccc2c1SCc1cc(Cl)ccc1C2N1CC2(CC2)C(=O)c2c(O)c(=O)ccn21 (stereo not drawn) [Compound 6]	6.00 to 7.00
CC1CC12CN(C1c3ccccc3SCc3c1ccc(F)c3F)n1ccc(=O)c(O)c1C2=O (stereo not drawn) [Compound 20]	6.00 to 7.00
O=C1c2c(O)c(=O)ccn2N(C2c3ccccc3SCc3cccc(Br)c32)CC12CC2 (stereo not drawn) [Compound 29]	6.00 to 7.00
O=C1c2c(O)c(=O)ccn2N(C2c3ccc(F)cc3CSc3c(Cl)cccc32)CC12CC2 (stereo not drawn) [Compound 3]	> 7.00
O=C(O)C1CC12CN(C1c3ccccc3SCc3c1ccc(F)c3F)n1ccc(=O)c(O)c1C2=O (stereo not drawn) [Compound 33]	6.00 to 7.00
Cc1cc(=O)c(O)c2n1N(C1c3ccccc3SCc3c1ccc(F)c3F)CC1(CC1)C2=O (stereo not drawn) [Compound 28]	6.00 to 7.00
O=C1c2c(O)c(=O)ccn2N(C2c3ccc(Cl)cc3CSc3c(F)cccc32)CC12CC2 (stereo not drawn) [Compound 14]	> 7.00
Cc1cccc2c1SCc1c(ccc(F)c1F)C2N1CC2(CC2)C(=O)c2c(O)c(=O)cc(C)n21 (stereo not drawn) [Compound 31]	6.00 to 7.00
